Columns and labels:
[1] = tested on: Staphylococcus epidermidis; test: Antibacterial activity against Staphylococcus epidermidis 1457 assessed as planktonic growth at 50 ug/ml; format: organism-based
[2] = tested on: Pseudomonas aeruginosa; test: Antibacterial activity against Pseudomonas aeruginosa PAO1 assessed as planktonic growth at 50 ug/ml; format: organism-based
[3] = tested on: Staphylococcus aureus; test: Antibiofilm activity against methicillin-resistant Staphylococcus aureus 1094 assessed as inhibition of biofilm formation at 50 ug/ml; format: functional
[4] = tested on: Staphylococcus aureus; test: Antibacterial activity against methicillin-resistant Staphylococcus aureus 1094 assessed as planktonic growth at 50 ug/ml; format: organism-based
[5] = tested on: Staphylococcus aureus; test: Antibiofilm activity against methicillin-resistant Staphylococcus aureus assessed as inhibition of biofilm formation at 50 ug/ml; format: functional
[6] = tested on: Staphylococcus aureus; test: Antibiofilm activity against Staphylococcus aureus ATCC 35556 assessed as inhibition of biofilm formation at 50 ug/ml; format: functional
[7] = tested on: Pseudomonas aeruginosa; test: Antibiofilm activity against Pseudomonas aeruginosa PAO1 assessed as inhibition of biofilm formation at 50 ug/ml; format: functional
[8] = tested on: Staphylococcus aureus; test: Antibacterial activity against Staphylococcus aureus ATCC 35556 assessed as planktonic growth at 50 ug/ml; format: organism-based
[9] = tested on: Staphylococcus epidermidis; test: Antibiofilm activity against Staphylococcus epidermidis GTC 18972 assessed as inhibition of biofilm formation at 50 ug/ml; format: functional
[10] = tested on: Staphylococcus epidermidis; test: Antibiofilm activity against Staphylococcus epidermidis 1457 assessed as inhibition of biofilm formation at 50 ug/ml; format: functional
[11] = tested on: Staphylococcus aureus; test: Antibacterial activity against methicillin-resistant Staphylococcus aureus assessed as planktonic growth at 50 ug/ml; format: organism-based; settings: in vitro
[12] = tested on: Staphylococcus epidermidis; test: Antibacterial activity against Staphylococcus epidermidis GTC 18972 assessed as planktonic growth at 50 ug/ml; format: organism-based

| SMILES | Activity [1] [%] | Activity [2] [%] | inhibition at 50 µg/mL [3] [%] | Activity [4] [%] | inhibition at 50 µg/mL [5] [%] | inhibition at 50 µg/mL [6] [%] | inhibition at 50 µg/mL [7] [%] | Activity [8] [%] | inhibition at 50 µg/mL [9] [%] | inhibition at 50 µg/mL [10] [%] | Activity [11] [%] | Activity [12] [%] |
| --- | --- | --- | --- | --- | --- | --- | --- | --- | --- | --- | --- | --- |
| O=C(NC/C=C/c1cnc2ncccn12)c1cc(Br)c[nH]1 | -24 | -19.9 | 36 | -8.7 | -108 | -5.5 | 2.1 | 8.6 | -1.8 | 14 | -16.4 | -3.1 |
| O=C(NC/C=C/c1cnc2ncccn12)c1ccc[nH]1 | -8.9 | 14.6 | 47.8 | -0.8 | -61 | 16.4 | -2.9 | -11.5 | 45.9 | 22.8 | 5 | 0.1 |
| O=C(NCC(=O)c1cnc2ncccn12)c1cc(Br)c(Br)[nH]1 | 13.8 | -15.25 | -13.9 | 18.43 | -119 | -5.8 | 20.8 | -4.3 | -2.59 | 6.17 | 7.17 | 19.25 |
| O=C(NCC(=O)c1cnc2ncccn12)c1cc(Br)c[nH]1 | 13.47 | -6.55 | 7.07 | 16.74 | -124 | -8.17 | 27.4 | -3.86 | -9.93 | 7.83 | -6.08 | 19.25 |
| O=C(NCC(=O)c1cnc2ncccn12)c1ccc[nH]1 | 11.5 | 3.14 | 2.15 | 20.67 | -119 | -5.94 | 14.3 | -4.75 | -6.61 | 7.6 | 3.76 | 17.02 |
| O=C(NCCC(=O)c1cnc2ncccn12)c1cc(Br)c(Br)[nH]1 | 9.93 | -13.02 | 0.13 | 6.37 | -124 | -4.41 | 8.66 | -6.51 | -9.35 | 4.48 | -1.91 | 15.9 |
| O=C(NCCC(=O)c1cnc2ncccn12)c1cc(Br)c[nH]1 | -2.26 | -14.84 | 22.5 | 5.81 | -127 | -8.17 | 17 | 4.97 | -9.3 | 2.71 | -6.08 | 1.02 |
| O=C(NCCC(=O)c1cnc2ncccn12)c1ccc[nH]1 | -3.27 | -15.89 | -25.1 | 10.52 | 16.9 | -1.6 | 13.2 | 6.67 | -16.7 | 1.26 | 0.95 | 11.45 |
| O=C(NCC(O)c1cnc2ncccn12)c1cc(Br)c(Br)[nH]1 (centres undefined) | 9.93 | -13.02 | 0.13 | 6.37 | -124 | -4.41 | 8.66 | -6.51 | -9.35 | 4.48 | -1.91 | 15.9 |
| O=C(NCC(O)c1cnc2ncccn12)c1cc(Br)c[nH]1 (centres undefined) | -2.26 | -14.84 | 22.5 | 5.81 | -127 | -8.17 | 17 | 4.97 | -9.3 | 2.71 | -6.08 | 1.02 |
| O=C(NCC(O)c1cnc2ncccn12)c1ccc[nH]1 (centres undefined) | -3.27 | -15.89 | -25.1 | 10.52 | 16.9 | -1.6 | 13.2 | 6.67 | -16.8 | -1.26 | 0.95 | 11.45 |
| O=C(NCCC(O)c1cnc2ncccn12)c1cc(Br)c(Br)[nH]1 (centres undefined) | 10.2 | 14.1 | 26.2 | -0.8 | -20.9 | -2.2 | -1.4 | 2.9 | -33.1 | 19.6 | -5.1 | 14.8 |
| O=C(NCCC(O)c1cnc2ncccn12)c1cc(Br)c[nH]1 (centres undefined) | 2.9 | 17.1 | 34.3 | 17.3 | 8 | 2.2 | 1.9 | 4.7 | -14.1 | 2.6 | 15.4 | 6.5 |
| O=C(NCCC(O)c1cnc2ncccn12)c1ccc[nH]1 (centres undefined) | 0.7 | -19.1 | 26.8 | -7.9 | -5.1 | -6.5 | 3.9 | 3.3 | 18.1 | 9.6 | 6.1 | 1 |
| O=C(NC/C=C/c1cnc2ncccn12)c1cc(Br)c(Br)[nH]1 | 7.8 | 11.6 | 38.9 | -0.5 | -9.7 | -0.4 | -1.7 | 3.3 | -16.6 | 18.3 | -6.1 | 9.1 |
| Cl.Cl.NCCC(=O)c1cnc2ncccn12 | 3.5 | 11.1 | -1.8 | -0.9 | -10.6 | 57.1 | -1.5 | -3.3 | 4.2 | 33 | -12.6 | 5.5 |
| Cl.Cl.NCC(=O)c1cnc2ncccn12 | -0.6 | 28.8 | -30.2 | 2 | 4.3 | -5.1 | 5.6 | 6.2 | 28.7 | 0.9 | 7.8 | 6.4 |

Reference: ChEMBL document CHEMBL3132815, “Design, synthesis and activities of 4/5-acyl-2-aminoimidazolyl analogues of oroidin for biofilm inhibition” (Medchemcomm, 2013)
